Assay results from paper PMC3256143, “Blue News Update: BODIPY-GTP Binds to the Blue-Light Receptor YtvA While GTP Does Not” (PLoS ONE, 2012).

What was measured:
YtvA [1] = molecular target: T1, YtvA (Bacillus subtilis, UniProt O34627, M1G); assay: ITC; also 1H-15N TROSY/HSQC, STD and WaterLOGSY NMR, fluorescence; assay type: binding
T1 construct: gene pfyP; full-length YtvA (Met1 replaced by Gly)

YtvA [2] = molecular target: T2, YtvA (Bacillus subtilis, UniProt O34627, M1G); assay: fluorescence enhancement on adding protein ([…] YtvA, […] dye); assay type: binding
T2 construct: gene pfyP; full-length YtvA and isolated STAS domain (amino acids 148–261)
T2 sequence (O34627 1-261 M1G): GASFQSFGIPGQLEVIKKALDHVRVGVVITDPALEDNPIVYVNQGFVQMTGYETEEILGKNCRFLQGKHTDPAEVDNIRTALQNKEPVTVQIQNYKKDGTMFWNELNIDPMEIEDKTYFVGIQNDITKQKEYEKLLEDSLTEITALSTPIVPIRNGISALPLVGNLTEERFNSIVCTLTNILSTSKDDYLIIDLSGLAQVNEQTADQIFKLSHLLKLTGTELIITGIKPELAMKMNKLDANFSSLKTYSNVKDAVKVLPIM

Nc1nc2c(ncn2[C@@H]2O[C@H](COP(=O)(O)OP(=O)(O)OP(=O)(O)O)[C@@H](O)[C@H]2OC(=O)NCCNC(=O)COc2ccc(C3=[N+]4C(=Cc5ccc(-c6cccs6)n5[B-]4(F)F)C=C3)cc2)c(=O)[nH]1 [BODIPY-GTP]
Kd (YtvA [1]): 2.5 µM

COC(=O)COc1ccc(-c2ccc3n2[B-](F)(F)[N+]2=C(c4cccs4)C=CC2=C3)cc1 [BODIPY methyl ester]
fluorescence enhancement on adding protein (12 μM YtvA, 2.2 μM dye) (YtvA [2]): This suggests that only the fluorophore is binding to the protein but the GTP part does not.
